Source: article PMC9629815, “MK256 is a novel CDK8 inhibitor with potent antitumor activity in AML through downregulation of the STAT pathway” (Oncotarget, 2022)
Read-outs that look alike come from different tables or passages of the source.

Tests used:
[1] = target: CYP1A2 (Homo sapiens, UniProt P05177); experiment: Cytochrome P450 inhibition assay; type: in vitro ADME; settings: 50 uM
[2] = system: MUTZ-8; experiment: Cell proliferation assay (CellTiter-Glo, 7-day); type: cell-based; settings: MUTZ-8, 168 h
Protocol: [The procedure below names another cell line; the source lists this cell line under the same test.] (§1) AML cell lines MV-4-11, MOLM14, KG-1, and SKNO-1 were acquired from ATCC (Manassas, VA, USA) and DSMZ (Braunschweig, Germany). Cells were plated (96-well) in triplicate at 3000 cells per well for testing (n = 3) in 1% FBS media. On day 7, the CellTiter-Glo Luminescent Cell Viability Assay (Promega, Madison, WI, US) was performed to measure the response. Two independent experiments were done.

[3] = system: NOMO-1; experiment: Cell proliferation assay (CellTiter-Glo, 7-day); type: cell-based; settings: Homo sapiens, NOMO-1, 168 h
Protocol: [The procedure below names another cell line; the source lists this cell line under the same test.] as §1

[4] = system: SKNO-1; experiment: Cell proliferation assay (CellTiter-Glo, 7-day); type: cell-based; settings: SKNO-1, 168 h
Protocol: as §1

CYP1A2, sequence (P05177 whole entry): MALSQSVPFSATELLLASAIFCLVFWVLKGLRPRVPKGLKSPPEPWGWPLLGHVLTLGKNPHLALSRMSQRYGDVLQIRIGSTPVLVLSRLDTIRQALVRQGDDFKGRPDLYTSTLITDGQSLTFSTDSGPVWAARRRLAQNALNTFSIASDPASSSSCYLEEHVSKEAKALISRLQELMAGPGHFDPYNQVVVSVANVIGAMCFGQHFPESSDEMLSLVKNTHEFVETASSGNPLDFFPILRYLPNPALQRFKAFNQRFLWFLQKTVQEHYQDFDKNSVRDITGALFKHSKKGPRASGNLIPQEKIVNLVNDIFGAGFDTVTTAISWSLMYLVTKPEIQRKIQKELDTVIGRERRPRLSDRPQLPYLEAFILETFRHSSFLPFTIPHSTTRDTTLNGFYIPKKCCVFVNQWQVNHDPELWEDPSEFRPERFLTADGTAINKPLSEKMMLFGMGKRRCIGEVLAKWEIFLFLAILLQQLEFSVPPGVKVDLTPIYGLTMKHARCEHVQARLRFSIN

For `Nc1nccc2c(Br)cc3cc(C(=O)O)ccc3c12` [MK256], the “cytochrome P450 inhibition” value [1] was “no inhibition”, the IC50 ([2]; 7-day, bound given in text, read-out: IC50) was greater than 2000 nM and the IC50 ([2]; read-out: IC50 nM (7-day)) was 5560 nM. The IC50 [3] was 646 nM and the IC50 [4] was 73 nM.
